The source of these data is the pKa sets of Baltruschat and Czodrowski (2020).

The structures appear in SMILES notation.

One may read the pKa as the pH at which an ionisable group is half protonated. High values mean a group that holds its proton tightly, low ones a group that gives up its proton readily.

For `CC(=O)NCCS`, the pKa (acidic group) amounted to 9.5. For `CN(C)CCC(c1ccccc1)c1ccccc1`, for the setting “basic group”, the pKa was determined as 9.4. `Nc1nc(O)cc[nH+]1` showed a pKa (acidic group) of 4.01.

`COC(=O)/C(=N/O)c1ccccc1` showed a pKa (acidic group) of 8.87.

In the case of `O=P([O-])([O-])C([NH2+]Cc1cccnc1)c1ccccc1O` (stereo not drawn), the pKa (acidic group) turned out to be 10.2. Consider `C[Si](C)(CCl)CCCC(=O)O`, for which the pKa (acidic group) stood at 4.97.

Where the note is “basic group”, `C[NH+]1CCn2c(nc3ccccc32)C1` yielded a pKa of 2.55. In turn, `Cc1cc(C(c2ccc(N)cc2)c2ccc(N)cc2)ccc1[NH3+]` registered a pKa (basic group) of 3.8. For `S=C(Nc1ccc(Cl)c(Cl)c1)c1ccc(Cl)cc1`, the pKa (acidic group) was determined as 9.51. The molecule `CN(C)CC(CSCc1ccccc1)SCc1ccccc1` (stereo not drawn) yielded a pKa (basic group) of 7.3. As to `CCCCCCNCCC(=O)[O-]`, the pKa (basic group) is 10.6. Regarding `O=c1ccc(O)c(Br)cc1`, where the note is “acidic group”, the pKa came out at 4.9. In the case of `CO[n+]1ccccc1N`, the pKa (acidic group) was 12.4. On to `CC[C@H]1[C@H](CC2=N/C(=C/c3[nH]c(C[C@@H]4NC(=O)[C@H](CC)[C@H]4C)c(C)c3CCC(=O)[O-])C(CCC(=O)[O-])=C2C)NC(=O)[C@@H]1C`, for which the pKa (basic group) was found to be 7.6. `c1ccc(CCNc2ncnc3[nH]ncc23)cc1` showed a pKa (acidic group) of 4.38. `S=C(S)NC1CCCCC1` returned a pKa (acidic group) of 2.95.

As to `O=C(O)C(=O)/C=C/c1ccccc1`, the pKa (acidic group) was 1.97.

`O=C(O)C1Cc2ccccc2O1` (stereo not drawn) gave a pKa (acidic group) of 3.25. In turn, `O=C(CN1CCCCC1)NCc1ccccc1` displayed a pKa (basic group) of 7.71.

Consider `CCN(CC)CCN(CC)CC`, for which the pKa (basic group) worked out at 9.55. In turn, `COc1c(N)cccc1C(=O)N[C@@H]1C[C@H]2CC[C@@H](C1)N2Cc1ccccc1` came in with a pKa (basic group) of 8.86. For the molecule `CC1(C)CC(=O)C(Br)C(=O)C1`, the pKa (acidic group) came to 3.1. Under “basic group”, `NCCCc1ccncc1` registered a pKa of 9.98. `C1CNC1` yielded a pKa (basic group) of 11.3. For `Cc1ccc(C(=O)O)cc1O`, the pKa (acidic group) was 4.32. Consider `CC1(C)CC(NCCO)CC(C)(C)[NH2+]1`, for which the pKa (basic group) was determined as 7.42.

In turn, `Oc1ccccc1-c1nnn[nH]1` came in with a pKa (acidic group) of 4.36. As to `O=S(=O)(Nc1cccc(C(F)(F)F)c1)c1ccccc1`, the pKa (acidic group) turned out to be 7.63. In turn, `O=C(O)c1cccc(Br)c1` returned a pKa (acidic group) of 3.79. `CC1=NN(c2ccccc2)C(=O)/C1=C\c1c(C)nn(-c2ccccc2)c1O` yielded a pKa (acidic group) of 13.8.

In turn, `c1cnc2c(c1)ccc1ncccc12` returned a pKa (basic group) of 4. For the setting “acidic group”, `S=C(Nc1ccccc1)c1ccccc1` had a pKa of 10.9. Take `CCNc1ncnc2[nH]ncc12`: the pKa came to 10.9 (acidic group) and 4.6 (basic group). As for `COc1nc2ccccc2nc1C`, the pKa (basic group) was 1.38.

`O=C([O-])[C@@H]1O[C@H](Oc2ccc3cccnc3c2)[C@@H](O)[C@H](O)[C@H]1O`: the pKa (basic group) came to 5.32.

For the setting “basic group”, `CCN(CC)CCSC1CCCCC1` registered a pKa of 8.11. `Ic1ccc(-c2nnn[nH]2)cc1` gave a pKa (acidic group) of 3.88. For `O=C(O)c1nccs1`, for the setting “basic group”, the pKa came out at 2.57. In turn, `CC(C)(C)c1cc(N)cc(C(C)(C)C)c1` gave a pKa (basic group) of 4.97. The molecule `CCN(CC)c1ccc(C(O)(c2ccccc2)c2ccc(N(CC)CC)cc2)cc1` registered a pKa (basic group) of 7.9.

`O=C(O)CC1CCCCC1`: the pKa (acidic group) was 4.8. In turn, `CCOCCn1c(CN2CCN(CCCCn3cccn3)CC2)nc2ccccc21` gave a pKa (basic group) of 7.9. Take `CC(=O)NS(=O)(=O)c1ccsc1C(=O)O`: the pKa (acidic group) stood at 3.1. Under “basic group”, `C[C@H](CCCNCc1ccccc1)[C@H]1CC[C@H]2[C@@H]3[C@H](O)C[C@@H]4C[C@H](O)CC[C@]4(C)[C@H]3CC[C@]12C` gave a pKa of 9.07. Turning to `Cc1cc(N)c(O)cc1C`, the pKa is, setting by setting: (acidic group) 10.4; (basic group) 5.28. In the case of `C#CC(C)(C)N(C)C(C)(C)C`, the pKa (basic group) amounted to 9.3. In the case of `CN(CCO)CCO`, the pKa (basic group) came to 8.51. Consider `O=C(O)c1ccc(Oc2ccccc2)cc1`, for which the pKa (acidic group) stood at 4.52. For the molecule `CCC(C)(O)c1cnc(CC(C)C)c(O)[n+]1[O-]` (stereo not drawn), the pKa (acidic group) is 5.02. In the case of `Cc1n[nH]c2cc(N)ccc12`, under “basic group”, the pKa came to 4.

`Oc1ccc2cc3ccccc3cc2c1`: the pKa (acidic group) is 9.92.

Molecule `O[C@H]1[C@H](O)[C@@H](n2cnc3ccccc32)OC[C@H]1O` had a pKa (basic group) of 4.15. Molecule `COc1cc(OC)nc([N-]S(=O)(=O)c2ccc(O)cc2)n1` came in with a pKa (acidic group) of 9.05. Regarding `Cc1ccc(O)c(Cc2cc([N+](=O)[O-])ccc2[O-])c1`, the pKa (acidic group) stood at 11.5. For `CCC(C)C(=O)CCN1CCOCC1` (stereo not drawn), the pKa (basic group) was 7.07.

`NCCc1cccnc1`: the pKa (basic group) was 9.44. For `NCCCNCCO`, the pKa (basic group) amounted to 10.3. Consider `C1COCCOCc2n[nH]c(n2)COCCOCCO1`, for which the pKa is, setting by setting: (acidic group) 9.55; (basic group) 2.36.

Molecule `O=c1ccccc(O)c1[O-]` gave a pKa (acidic group) of 11.5. In the case of `COc1cc(N)cc(C(=O)N[C@@H]2C[C@H]3CC[C@@H](C2)N3Cc2ccccc2)c1OC`, for the setting “basic group”, the pKa was 9.07. On the same count and under the same terms, the result for `c1ccc2c(CC3=NCCN3)cccc2c1` reads 10.3. `Nc1ncc2[nH]cnc2n1` returned a pKa (acidic group) of 9.93 and a pKa (basic group) of 3.8. On to `Cc1cc(C)c(C)c(O)c1`, for which the pKa (acidic group) worked out at 10.6. Molecule `C=CC(=O)OCCN(CC)CC` came in with a pKa (basic group) of 8.55. On to `O=C(O)c1cccc[n+]1[O-]`, for which the pKa (acidic group) was 3.54. Where the note is “acidic group”, `Oc1ccccc1-c1ccccc1` displayed a pKa of 9.99.

On to `CCCCC[C@H](C)N`, for which the pKa (basic group) is 10.8.

`CN(C)CCCN(C)CCC[NH+](C)C`: the pKa (basic group) turned out to be 9. Take `CC(C)NNC1CC[NH+](C)CC1`: the pKa (basic group) worked out at 6.32.

Consider `CCC1(CC)C(=O)NC(=O)N(C(=O)c2ccccc2OC)C1=O`, for which the pKa (acidic group) worked out at 6.54. On to `OCCN1CC[NH2+]CC1`, for which the pKa (basic group) was found to be 5.47. On to `Nc1ncc2[nH]c(-c3ccccc3)nc2n1`, for which the pKa reads like this: (acidic group) 9.2; (basic group) 3.98. Consider `C[Si](C)(C)OC1CN(C2CCCCC2)C1`, for which the pKa (basic group) was determined as 9.02. As to `CCc1ccnc2c1ccc1cccnc12`, the pKa (basic group) amounted to 5.44. Under “basic group”, `O=C1CC2OCC=C3C4CC5N(CCC56c5ccccc5N1C6C24)[C@H]3S(=O)(=O)[O-]` (stereo partly drawn) yielded a pKa of 3.2. In the case of `Nc1ccc(O)cc1O`, the pKa (acidic group) came out at 9.3 and the pKa (basic group) is 5.7.

As to `CCCC[NH+](CCS)CCCC`, where the note is “acidic group”, the pKa turned out to be 7.76. In turn, `NCCc1ccccc1` gave a pKa (basic group) of 9.89.

Under “basic group”, `N[C@H]1C[C@@H]2CCCC[C@H]2C[C@@H]1N` displayed a pKa of 9.97. Molecule `O=C(O)C12CCC(CC1)C2` yielded a pKa (acidic group) of 4.89.

Take `C1N2CN3CN1C[NH+](C2)C3`: under “basic group”, the pKa is -1.7. The molecule `C[C@]12CC[C@@H]3c4ccc(O)cc4CC[C@H]3[C@@H]1C[C@@H](O)[C@@H]2O` gave a pKa (acidic group) of 10.8. As for `CNc1ccccn1`, for the setting “basic group”, the pKa came to 7.13. Where the note is “acidic group”, `Cc1ccc(C(O)C(C(=O)O)c2ccc(-c3ccccc3)cc2)cc1` (stereo not drawn) gave a pKa of 4.24. For the setting “basic group”, `Cc1ccc(S(=O)C(C)(C)C)cc1` (stereo not drawn) came in with a pKa of -2.2. `c1ccc(NC2=NCCCO2)cc1`: the pKa (basic group) was determined as 9.33. For the setting “basic group”, `NC(=O)CN(CC[NH+](CC(N)=O)Cc1ccccc1O)Cc1ccccc1O` yielded a pKa of 1.89.

The molecule `Cc1nc(C(=O)[O-])cs1` showed a pKa (basic group) of 3.9.

`Nc1ccc(S(=O)(=O)Nc2ncccc2O)cc1` displayed a pKa (acidic group) of 7.6. Take `CNCC/C(N)=N/O`: where the note is “basic group”, the pKa was 9.6. Where the note is “acidic group”, `Cc1cc(=O)oc2cc(O)ccc12` gave a pKa of 7.8. Turning to `CC(O)CNCC(C)O` (stereo not drawn), where the note is “basic group”, the pKa was 8.88.
